Data published in US3983125A, “Thieno-pyridine derivatives, process for their preparation and their applications” (Parcor, priority 1974, dated 1976).

Tests used:
[1] = Acute toxicity, LD50 intravenous route, Miller and Tainter method; conditions: mouse, in vivo, mice, per kg body weight
[2] = Carrageenin-induced localized edema method; type: in vivo; conditions: rat, 100 mg/kg orally per administration; for Percent anti-inflammatory activity after 1 hour: 1 hour after carrageenin; for Percent anti-inflammatory activity after 2 hours: 2 hours after carrageenin; for Percent anti-inflammatory activity after 5 hours: 5 hours after carrageenin
Method: a. Carrageenin-induced localized edema method
A 1% carrageenin solution (0.1 ml) is injected in the metatarsal flexor muscles of the right posterior limb of a rat at time 0 (zero). The animals of the treated lot are additionally given orally 100 mg/kg of the respective test derivatives, one hour prior to and then simultaneously with the injection of the phlogogenic agent, and then one hour and 2.5 hours thereafter. The determinations effected by means of a ROCH micrometer at times 0, 1 hour, 2 hours, 3 hours and 5 hours after carrageenin administration, provide a measure of the percent anti-inflammatory activity, as a function of time.

[3] = Ovalbumin-induced systemic edema method; type: in vivo; conditions: rat, 100 mg/kg orally, one hour prior to and simultaneously with ovalbumin; for Percent decrease (edematous reaction) after two hours: 2 hours; for Percent decrease (edematous reaction) after three hours: 3 hours
Method: b. Ovalbumin-induced systemic edema method
Rats are administered a simultaneous intraperitoneal injection of 1 ml ovalbumin and 0.5 ml of a 1% aqueous Evans Blue solution. On the other hand, the animals of the treated lot are administered orally 100 mg/kg of the test derivative, one hour prior to and simultaneously with the ovalbumin administration. The determinations are effected after 2 hours and after 3 hours. Thus are determined the average intensity of the edema and the percent decrease of the edematous reaction with respect to the controls.

[4] = Acetic acid method (writhing), according to Koster, Anderson and de Beer; type: in vivo; conditions: mice, 100 mg/kg orally, 30 minutes prior to acetic acid i.p.; writhing within following 30 minutes
Excerpt: a. Acetic acid method, according to Koster, Anderson and de Beer (Fed. Proced., 18, 1959, 412, 1, 626).
Intraperitoneal injection of a dilute acetic acid solution produces, in mice, characteristic repeated writhing movements, under the influence of pain.

[5] = Mechanical stimulation method according to Haffner; type: in vivo; conditions: mouse, 100 mg/kg orally
Method: b. Mechanical stimulation method according to Haffner (Deutsch. Wisch., 1959, 55, 731-733)
This method comprises placing a forcipressure forceps at the base of the tail of a mouse and noting the number of self-inflicted bites due to the animal's efforts to remove the forceps. The decrease of the number of bites prior to and after oral administration of the test derivative, at a dosage of 100 mg/kg, provides a measure of the antalgic activity of the derivatives of this invention.

[6] = Acute toxicity, LD50 oral route; conditions: mouse, in vivo, per kg body weight
Method: By the oral route, the LD50 /24 hrs/kg body weight is in excess of 300 mg with derivatives n°1 and n°2.

Row | Structure (SMILES) | LD50 at 24 h [1] [mg/kg] | Percent anti-inflammatory activity after 1 hour [2] [%] | Percent anti-inflammatory activity after 2 hours [2] [%] | Percent anti-inflammatory activity after 5 hours [2] [%] | Percent decrease (edematous reaction) after two hours [3] [%] | Percent decrease (edematous reaction) after three hours [3] [%] | Percent antalgic activity [4] [%] | Average percent antalgic activity after 30 min. [5] [%] | Average percent antalgic activity after 1 hr [5] [%] | Average percent antalgic activity after 2 hrs [5] [%] | Average percent antalgic activity after 3 hrs [5] [%] | LD50 at 24 h [6] [mg/kg]
1 | CCC1NCC(O)c2sccc21 (centres unmarked) [Derivative 6, 4-ethyl-7-hydroxy-4,5,6,7-tetrahydro-thieno[3,2-c]pyridine] | 210 | 39 | 51 | 57 | 49 | 64 | 58 | 71 | 67 | 63 | 58 | –
2 | CC1NCC(O)c2ccsc21 (centres unmarked) [Derivative 3, 4-hydroxy-7-methyl-4,5,6,7-tetrahydro-thieno[2,3-c]pyridine] | 300 | 38 | 47 | 56 | 45 | 56 | 55 | 68 | 62 | 58 | 50 | –
3 | CCC1NCC(O)c2ccsc21 (centres unmarked) [Derivative 4, 7-ethyl-4-hydroxy-4,5,6,7-tetrahydro-thieno[2,3-c]pyridine] | 285 | 43 | 51 | 59 | 54 | 62 | 61 | 74 | 65 | 60 | 52 | –
4 | OC1CNCc2sccc21 (centres unmarked) [Derivative 2, 4-hydroxy-4,5,6,7-tetrahydro-thieno[2,3-c]pyridine] | 68 | 43 | 54 | 58 | 56 | 65 | 66 | 76 | 69 | 60 | 54 | > 300
5 | CC1NCC(O)c2sccc21 (centres unmarked) [Derivative 5, 7-hydroxy-4-methyl-4,5,6,7-tetrahydro-thieno[3,2-c]pyridine] | 155 | 41 | 55 | 60 | 52 | 64 | 59 | 76 | 64 | 61 | 52 | –
6 | OC1CNCc2ccsc21 (centres unmarked) [Derivative 1, 7-hydroxy-4,5,6,7-tetrahydro-thieno[3,2-c]pyridine] | 75 | 41 | 48 | 53 | 54 | 58 | 63 | 72 | 68 | 62 | 55 | > 300
